# Reference: patent US20230190745A1, “USE OF METABOLIC REGULATORS FOR THE TREATMENT OF COVID-19” (YISSUM RESEARCH DEVELOPMENT COMPANY OF THE HEBREW …, priority 2020, published 2023)
# Like-named read-outs stand apart in the source and are kept apart here.
# Columns and labels:
# [1] = tested on: SARS-CoV-2 infected lung cells; assay: Cell viability (Hoechst staining) of SARS-CoV-2 infected lung cells exposed to drugs; format: cell-based, human; conditions: 5 days exposure
# Procedure: Drug Treatments: Approximately 5×10^5 NHBE cells were infected with SARS-CoV-2 at a MOI of 2 in bronchial epithelial growth media. […] After 24 h, the media was collected and changed to bronchial epithelial growth media with the respective drug at the concentration listed above. Then, every 48 hours media was collected and replenished. The media was stored at −80° C. immediately after removal. Culture viability was assessed at the end the experiment using Hoechst staining.
# SARS-CoV-2 = assay: Viral load quantitative real-time PCR in SARS-CoV-2 infected NHBE cells under drug treatment; format: cell-based; conditions: for reduction of SARS-CoV-2 viral load: 5 days of treatment, viral RNA vs DMSO vehicle, n=3
# [2] = tested on: SARS-CoV-2 infected primary lung cells; format: cell-based, human
# COVID-19 patients [3] = assay: Observational comparison of representation of metabolic regulator users in hospital records versus COVID-19 cases (chi-squared / IRR, Table 3); format: in vivo, human; conditions: for representation among COVID-19 severity indicators (hospitalization, ICU admission, deaths): chi-squared test vs general hospital medical records
# COVID-19 patients [4] = assay: Secondary outcomes and organ failure, incidence rate ratios and Cox hazard ratios (Table 4); format: in vivo, human
# Excerpt: Any death that occurred was documented.
# COVID-19 patients [5] = assay: Propensity score-matched analysis of hospitalized COVID-19 patients, outcomes after PSM (Table 5); format: in vivo, human
# COVID-19 patients [6] = assay: Retrospective cohort of hospitalized COVID-19 patients taking metabolic regulators, outcomes before PSM (Table 2); format: in vivo, human; conditions: users before PSM
# Procedure: Israeli Study Design and Participants: A retrospective, multi-center study was conducted in Hadassah and Ichilov medical centers. A total of 20,153 participants were diagnosed positive for SARS-COV-2 following WHO interim guidance (World Health Organization, 2020). Only patients hospitalized and diagnosed with COVID-19 were included. Participants with incomplete electronic medical records, aged less than 18, with pregnancy or severe medical conditions, including acute lethal organ injury (i.e., acute coronary syndrome, acute stroke, and severe acute pancreatitis) were excluded. The flowchart for patient inclusion is illustrated in FIG. 4J. Participants were admitted between Mar. 1, 2020, and Aug. 31, 2020 to either the Hadassah Medical Center in Jerusalem or the Tel Aviv Sourasky Medical Center. The final date of the follow up was Sep. 28, 2020. The study protocols were approved by the institutional ethics committee. Patient informed consent was waived by each ethics committee. Demographic and clinical characteristics, vital signs, laboratory tests, radiological reports, therapeutic interventions, and outcome data were extracted from electronic medical records using a standardized data collection. The laboratory data included a routine blood test, serum biochemical markers reflecting liver injury, kidney injury, and cardiac injury, lipid profile, IL-6, CRP, procalcitonin, and D-dimer were collected during hospitalization. In-hospital medication and life support intervention included the classification of the drugs, the dosage, the course of treatment, and using respiratory support were also extracted from medical records.
# COVID-19 patients [7] = conditions: 21-day hospitalization, vs PSM-matched controls
# Procedure: In clinical data, continuous variables with non-normal distributions were expressed as median [IQR]. Categorical variables were expressed as number and percentage (%). […] Comparisons between groups were performed with Mann-Whitney U test for nonparametric variables and Fisher's exact test or χ2 test for categorical variables. Person-time data (Incidence) of two groups with different exposures may be expressed as a difference between incidence rates or as a ratio of incidence rates (IRRs). The IRRs of endpoint outcomes were calculated to estimate the incidence difference in absolute change in the incidence of two comparison groups. The cumulative rates of death were compared using the Kaplan-Meier curves. Dynamic changes of inflammatory factors tracking from day 0 to day 28 after admission were depicted using the Lowess model. A two-side a less than 0.05 was considered to define statistical significance. Data were analyzed in R-3.6.3 (R Foundation for Statistical Computing, Vienna, Austria) and SPSS Statistics (version 23.0, IBM, Armonk, N.Y., USA).
# To study the effects of metabolic regulators on COVID-19 progression the dynamic changes in circulating C-reactive protein (CRP), neutrophils, and lymphocytes markers of SARS-CoV-2 induced immunoinflammatory response were analyzed.
# [8] = tested on: SARS-CoV-2 infected lung cells; format: cell-based; conditions: 5 days exposure, vs DMSO-treated and mock-infected controls
# [9] = vs share in 249,939 patient records 2015-2020
# [10] = adjusted hazard ratio, mixed-effect Cox model, treatment versus non-treatment group
# [11] = incidence rate in treatment group (first figure of 'x versus y')
# [12] = incidence rate ratio, treatment versus non-treatment group
# [13] = vs PSM-matched non-treatment group
# [14] = physiological concentrations (Cmax): 20 μM rosiglitazone, 5 μM empagliflozin, 1 mM metformin
structure (smiles),measurement,setting,value
CC(C)OC(=O)C(C)(C)Oc1ccc(C(=O)c2ccc(Cl)cc2)cc1 [fenofibrate],cell viability,[1],without affecting cell viability
same,reduction of SARS-CoV-2 viral load,SARS-CoV-2; 20 μM fenofibrate,2 logs
same,reduction of lactate to glucose ratio,"[2]; SARS-CoV-2 infected primary lung cells, n=3, p<0.01",60%
CN(C)C(=N)N=C(N)N [metformin],"representation among COVID-19 severity indicators (hospitalization, ICU admission, deaths)",COVID-19 patients [3],significant over-representation
same,"COVID-19 Deceased, number of patients taking the drug",COVID-19 patients [3]; of 100 COVID-19 deceased,13
same,"COVID-19 Deceased, share of patients taking the drug",COVID-19 patients [3]; of 100 COVID-19 deceased,13.00%
same,"COVID-19 ICU, number of patients taking the drug",COVID-19 patients [3]; of 312 COVID-19 ICU patients,42
same,"COVID-19 ICU, share of patients taking the drug",COVID-19 patients [3]; of 312 COVID-19 ICU patients,13.46%
same,"COVID-19 Hospitalization, share of patients taking the drug","COVID-19 patients [3]; of 1,531 hospitalized COVID-19 cases",8.82%
same,"COVID-19 Hospitalization, number of patients taking the drug","COVID-19 patients [3]; of 1,531 hospitalized COVID-19 cases, adults over 40",135
same,"IRR, COVID-19 Deceased",COVID-19 patients [3]; [9],1.85
same,"IRR, COVID-19 Hospitalization",COVID-19 patients [3]; [9],1.26
same,"aHR, ICU admission",COVID-19 patients [4]; [10],1.1
same,"aHR, acute cardiac injury",COVID-19 patients [4]; [10],1.1
same,"aHR, acute kidney injury",COVID-19 patients [4]; [10],0.48
same,"aHR, acute liver injury",COVID-19 patients [4]; [10],0.76
same,"aHR, invasive mechanical ventilation",COVID-19 patients [4]; [10],1.3
same,"aHR, septic shock",COVID-19 patients [4]; [10],1.6
same,"IR, ICU admission",COVID-19 patients [4]; [11],0.37 versus 0.31 100-person-day
same,"IR, acute cardiac injury",COVID-19 patients [4]; [11],0.25 versus 0.36 100-person-day
same,"IR, acute kidney injury",COVID-19 patients [4]; [11],0.18 versus 0.37 100-person-day
same,"IR, acute liver injury",COVID-19 patients [4]; [11],0.05 versus 0.11 100-person-day
same,"IR, septic shock",COVID-19 patients [4]; [11],0.16 versus 0.12 100-person-day
same,"IR, invasive mechanical ventilation",COVID-19 patients [4]; incidence rate in treatment group (first figure of 'x versus y'; second is the non-treatment group),0.15 versus 0.12 100-person-day
same,"IRR, ICU admission",COVID-19 patients [4]; [12],1.2
same,"IRR, acute cardiac injury",COVID-19 patients [4]; [12],0.69
same,"IRR, acute kidney injury",COVID-19 patients [4]; [12],0.47
same,"IRR, acute liver injury",COVID-19 patients [4]; [12],0.43
same,"IRR, invasive mechanical ventilation",COVID-19 patients [4]; [12],1.3
same,"IRR, septic shock",COVID-19 patients [4]; [12],1.3
same,"Follow-up days, median (IQR)","COVID-19 patients [5]; median, drug users after PSM",4.8 days
same,"High Flow Oxygen, %",COVID-19 patients [5]; share of drug users after PSM,(15.6%)
same,"ICU admission, %",COVID-19 patients [5]; share of drug users after PSM,(16.3%)
same,"Mechanically Ventilated/ECMO, %",COVID-19 patients [5]; share of drug users after PSM,(10.4%)
same,"Non-invasive positive pressure ventilation, %",COVID-19 patients [5]; share of drug users after PSM,(2.2%)
same,"Oxygen Supplementation, %",COVID-19 patients [5]; share of drug users after PSM,(42.2%)
same,ICU admission rates,COVID-19 patients [5]; [13],higher ICU admission rate and respiratory interventions
same,length of hospitalization,COVID-19 patients [5]; [13],longer hospitalizations
same,mortality rates,COVID-19 patients [5]; [13],higher mortality rates
same,respiratory intervention rates,COVID-19 patients [5]; [13],higher ICU admission rate and respiratory interventions
same,effect on SARS-CoV-2 infected primary cells (FIG. 4C-G),SARS-CoV-2; [14],no effect
same,"Follow-up days, median",COVID-19 patients [6],5.0 days
same,"High Flow Oxygen, %",COVID-19 patients [6],(19%)
same,"ICU admission, %",COVID-19 patients [6],(30.7%)
same,"Mechanically Ventilated/ECMO, %",COVID-19 patients [6],(12.44%)
same,"Non-invasive positive pressure ventilation, %",COVID-19 patients [6],(7.3%)
same,"Oxygen Supplementation, %",COVID-19 patients [6],(38%)
same,circulating CRP levels (inflammation),COVID-19 patients [7],no significant differences
same,lymphocyte counts,COVID-19 patients [7],lower lymphocyte count during the recovery period
same,neutrophil counts,COVID-19 patients [7],lower initial neutrophil counts but relativity similar response to their PSM-matched controls
CN(CCOc1ccc(CC2SC(=O)NC2=O)cc1)c1ccccn1 (stereo not shown) [Rosiglitazone],effect on SARS-CoV-2 infected primary cells (FIG. 4C-G),SARS-CoV-2,no effect
OC[C@H]1O[C@@H](c2ccc(Cl)c(Cc3ccc(O[C@H]4CCOC4)cc3)c2)[C@H](O)[C@@H](O)[C@@H]1O [empagliflozin],effect on SARS-CoV-2 infected primary cells (FIG. 4C-G),SARS-CoV-2; [14],no effect
CCCc1nc2c(C)cc(-c3nc4ccccc4n3C)cc2n1Cc1ccc(-c2ccccc2C(=O)O)cc1 [telmisartan],"representation among COVID-19 severity indicators (hospitalization, ICU admission, deaths)",COVID-19 patients [3],over-represented in ICU admission and deaths
CC(C)(Oc1ccc(C2CC2(Cl)Cl)cc1)C(=O)O (stereo not shown) [ciprofibrate],"representation among COVID-19 severity indicators (hospitalization, ICU admission, deaths)",COVID-19 patients [3],underrepresented in ICU admissions and deaths
Clc1ccc(C(OCCN2CCCCC2)c2ccccc2)cc1 (stereo not shown) [cloperastine],cell viability,[1],without affecting cell viability
same,reduction of SARS-CoV-2 viral load,SARS-CoV-2; 10 μM,3 fold
same,phospholipid accumulation / lipid content,[8],did not result in a reduction of lipid content
same,glycolytic index / increase in glycolysis,"[2]; Cmax concentration, infected primary cells",did not result in a reduction of lipid content or change in the glycolytic index
